Experimental data from PubChem BioAssay AID248 (DTP/NCI, 2004).
Values joined by “and” are separate entries in the source; they are usually repeats but may differ in a detail not shown here. Equal entries are not always repeated. Toxic doses and inconclusive results are not listed.

Tested on: L1210 leukemia ip in BDF1 mice, survival T/C
Experiment: NCI In Vivo Anticancer Drug Screen. Data for tumor model L1210 Leukemia (intraperitoneal) in B6D2F1 (BDF1) mice
Conditions: higher = longer survival
Procedure, shortened: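 Tumor was transplanted into mice, which were then dosed with test compound or vehicle alone. Survival was recorded for each group, and the treated figure was expressed relative to the control figure.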

[1] = endpoint: mean survival time, dose: 25.0 mg/kg/injection, schedule: Q04DX003 (ip), vehicle: saline
[2] = endpoint: mean survival time, dose: 50.0 mg/kg/injection, schedule: Q04DX003 (ip), vehicle: saline
[3] = endpoint: mean survival time, dose: 100.0 mg/kg/injection, schedule: Q04DX003 (ip), vehicle: saline
[4] = endpoint: mean survival time, dose: 100.0 mg/kg/injection, schedule: Q01DX009 (ip), vehicle: Klucel (hydroxypropylcellulose) (HPC)
[5] = endpoint: mean survival time, dose: 200.0 mg/kg/injection, schedule: Q01DX009 (ip), vehicle: Klucel (hydroxypropylcellulose) (HPC)
[6] = endpoint: mean survival time, dose: 100.0 mg/kg/injection, schedule: Q04DX002 (ip), vehicle: Klucel (hydroxypropylcellulose) (HPC)
[7] = endpoint: mean survival time, dose: 100.0 mg/kg/injection, schedule: Q01DX009 (ip), vehicle: saline with Tween-80
[8] = endpoint: mean survival time, dose: 100.0 mg/kg/injection, schedule: Q04DX003 (ip), vehicle: saline with Tween-80
[9] = endpoint: mean survival time, dose: 200.0 mg/kg/injection, schedule: Q01DX009 (ip), vehicle: saline with Tween-80
[10] = endpoint: mean survival time, dose: 200.0 mg/kg/injection, schedule: Q04DX003 (ip), vehicle: saline with Tween-80
[11] = endpoint: mean survival time, dose: 400.0 mg/kg/injection, schedule: Q04DX003 (ip), vehicle: saline with Tween-80
[12] = endpoint: mean survival time, dose: 200.0 mg/kg/injection, schedule: Q04DX002 (ip), vehicle: Klucel (hydroxypropylcellulose) (HPC)
[13] = endpoint: mean survival time, dose: 400.0 mg/kg/injection, schedule: Q04DX002 (ip), vehicle: Klucel (hydroxypropylcellulose) (HPC)
[14] = endpoint: mean survival time, dose: 100.0 mg/kg/injection, schedule: Q04DX003 (ip), vehicle: Klucel (hydroxypropylcellulose) (HPC)
[15] = endpoint: mean survival time, dose: 100.0 mg/kg/injection, schedule: Q01DX009 (ip), vehicle: saline

## [NH-]CC(=O)[N-]CC(=O)O.[NH-]CC(=O)[N-]CC(=O)O.[Ni]
endpoint: mean survival time, dose: 25.0 mg/kg/injection, schedule: Q01DX009 (ip), vehicle: saline
  T/C: 86 % of control
[1]
  T/C: 107 % of control
[2]
  T/C: 116 % of control
[3]
  T/C: 98 % of control and 92 % of control

## COC(=O)CCSP(=S)(Oc1ccccc1)Oc1ccccc1
[4]
  T/C: 107 % of control
[5]
  T/C: 105 % of control
endpoint: mean survival time, dose: 400.0 mg/kg/injection, schedule: Q01DX009 (ip), vehicle: Klucel (hydroxypropylcellulose) (HPC)
  T/C: 96 % of control

## CCN(CC)CCNc1ccc(CO)c2oc3cc(Cl)ccc3c(=O)c12
endpoint: mean survival time, dose: 31.25 mg/kg/injection, schedule: Q01DX009 (ip), vehicle: Klucel (hydroxypropylcellulose) (HPC)
  T/C: 94 % of control
endpoint: mean survival time, dose: 62.5 mg/kg/injection, schedule: Q01DX009 (ip), vehicle: Klucel (hydroxypropylcellulose) (HPC)
  T/C: 100 % of control
endpoint: mean survival time, dose: 125.0 mg/kg/injection, schedule: Q01DX009 (ip), vehicle: Klucel (hydroxypropylcellulose) (HPC)
  T/C: 96 % of control

## CC(C)(C)c1ccc(O)c([N+](=O)[O-])c1
endpoint: mean survival time, dose: 25.0 mg/kg/injection, schedule: Q04DX002 (ip), vehicle: Klucel (hydroxypropylcellulose) (HPC)
  T/C: 86 % of control
endpoint: mean survival time, dose: 50.0 mg/kg/injection, schedule: Q04DX002 (ip), vehicle: Klucel (hydroxypropylcellulose) (HPC)
  T/C: 86 % of control
[6]
  T/C: 102 % of control and 88 % of control

## O=C1C(Cl)=C(Nc2ccccc2)C(=O)C(Cl)=C1Nc1ccccc1
[7]
  T/C: 87 % of control
[8]
  T/C: 88 % of control
[9]
  T/C: 87 % of control
[10]
  T/C: 92 % of control
endpoint: mean survival time, dose: 400.0 mg/kg/injection, schedule: Q01DX009 (ip), vehicle: saline with Tween-80
  T/C: 94 % of control
[11]
  T/C: 95 % of control

## O=[N+]([O-])c1cccc(C=Nc2ccc(Nc3ccccc3)cc2)c1
[6]
  T/C: 114 % of control
[12]
  T/C: 100 % of control
[13]
  T/C: 111 % of control

## Nc1cccc(OCCCOc2cccc([N+](=O)[O-])c2)c1
endpoint: mean survival time, dose: 50.0 mg/kg/injection, schedule: Q01DX009 (ip), vehicle: Klucel (hydroxypropylcellulose) (HPC)
  T/C: 106 % of control
[4]
  T/C: 90 % of control
[5]
  T/C: 90 % of control

## COC1OCN(C)CC1(C)C (centres undefined)
endpoint: mean survival time, dose: 75.0 mg/kg/injection, schedule: Q01DX009 (ip), vehicle: saline
  T/C: 87 % of control
[14]
  T/C: 105 % of control
endpoint: mean survival time, dose: 150.0 mg/kg/injection, schedule: Q01DX009 (ip), vehicle: saline
  T/C: 95 % of control
endpoint: mean survival time, dose: 200.0 mg/kg/injection, schedule: Q04DX003 (ip), vehicle: Klucel (hydroxypropylcellulose) (HPC)
  T/C: 102 % of control
endpoint: mean survival time, dose: 300.0 mg/kg/injection, schedule: Q01DX009 (ip), vehicle: saline
  T/C: 99 % of control

## COc1ccc(NC(=O)c2ccc(Cl)cc2Cl)c(OC)c1
[6]
  T/C: 102 % of control
[12]
  T/C: 97 % of control
[13]
  T/C: 102 % of control

## N=C(N)c1ccc(-c2[nH]c3cc(C(=N)N)ccc3c2-c2ccccc2)cc1
endpoint: mean survival time, dose: 12.5 mg/kg/injection, schedule: Q04DX003 (ip), vehicle: saline
  T/C: 100 % of control and 110 % of control
[1]
  T/C: 100 % of control and 110 % of control
[2]
  T/C: 108 % of control and 112 % of control

## CC[n+]1c(C)sc2cc(Cl)c(-c3ccccc3)cc21
[3]
  T/C: 98 % of control
endpoint: mean survival time, dose: 200.0 mg/kg/injection, schedule: Q04DX003 (ip), vehicle: saline
  T/C: 101 % of control
endpoint: mean survival time, dose: 400.0 mg/kg/injection, schedule: Q04DX003 (ip), vehicle: saline
  T/C: 95 % of control

## CC1(C)N=C(N)N=C(N)N1c1ccc(OCCOc2ccc(NC(=O)CBr)cc2)cc1
endpoint: mean survival time, dose: 120.0 mg/kg/injection, schedule: Q01DX009 (ip), vehicle: saline
  T/C: 124 % of control
endpoint: mean survival time, dose: 176.0 mg/kg/injection, schedule: Q01DX009 (ip), vehicle: saline
  T/C: 112 % of control
endpoint: mean survival time, dose: 266.0 mg/kg/injection, schedule: Q01DX009 (ip), vehicle: saline
  T/C: 107 % of control
endpoint: mean survival time, dose: 400.0 mg/kg/injection, schedule: Q01DX009 (ip), vehicle: saline
  T/C: 98 % of control

## CC1CC([P+](c2ccccc2)(c2ccccc2)c2ccccc2)=NN1 (centres undefined)
[1]
  T/C: 120 % of control
[2]
  T/C: 113 % of control

## NC1=NN(c2ccccc2)C(=O)/C1=C\c1ccccc1
endpoint: mean survival time, dose: 50.0 mg/kg/injection, schedule: Q01DX009 (ip), vehicle: saline with Tween-80
  T/C: 102 % of control
[7]
  T/C: 98 % of control
[9]
  T/C: 91 % of control

## Nc1cc(F)c([N+](=O)[O-])cc1[N+](=O)[O-]
endpoint: mean survival time, dose: 8.0 mg/kg/injection, schedule: Q01DX015 (ip), vehicle: carboxymethylcellulose (CMC)
  T/C: 89 % of control
endpoint: mean survival time, dose: 16.0 mg/kg/injection, schedule: Q01DX015 (ip), vehicle: carboxymethylcellulose (CMC)
  T/C: 91 % of control
endpoint: mean survival time, dose: 32.0 mg/kg/injection, schedule: Q01DX015 (ip), vehicle: carboxymethylcellulose (CMC)
  T/C: 102 % of control

## CC(=O)c1ccc2c(c1)C(=O)c1ccccc1-2
endpoint: mean survival time, dose: 100.0 mg/kg/injection, schedule: Q01DX001 (ip), vehicle: carboxymethylcellulose (CMC)
  T/C: 92 % of control
endpoint: mean survival time, dose: 200.0 mg/kg/injection, schedule: Q01DX001 (ip), vehicle: carboxymethylcellulose (CMC)
  T/C: 93 % of control
endpoint: mean survival time, dose: 400.0 mg/kg/injection, schedule: Q01DX001 (ip), vehicle: carboxymethylcellulose (CMC)
  T/C: 93 % of control

## O=C(ON=C(c1ccc(Cl)cc1)c1ccc(Cl)cc1)c1ccc(Cl)cc1
endpoint: median survival time, dose: 300.0 mg/kg/injection, schedule: Q01DX009 (ip), vehicle: Klucel (hydroxypropylcellulose) (HPC)
  T/C: 157 % of control
endpoint: median survival time, dose: 500.0 mg/kg/injection, schedule: Q01DX009 (ip), vehicle: Klucel (hydroxypropylcellulose) (HPC)
  T/C: 88 % of control
endpoint: median survival time, dose: 833.0 mg/kg/injection, schedule: Q01DX009 (ip), vehicle: Klucel (hydroxypropylcellulose) (HPC)
  T/C: 74 % of control

## Cc1cc(=O)[nH]c2c1ccc1[nH]c(=O)cc(C)c12
endpoint: mean survival time, dose: 100.0 mg/kg/injection, schedule: Q01DX001 (ip), vehicle: Klucel (hydroxypropylcellulose) (HPC)
  T/C: 91 % of control
[14]
  T/C: 95 % of control
endpoint: mean survival time, dose: 200.0 mg/kg/injection, schedule: Q01DX001 (ip), vehicle: Klucel (hydroxypropylcellulose) (HPC)
  T/C: 94 % of control
endpoint: mean survival time, dose: 400.0 mg/kg/injection, schedule: Q01DX001 (ip), vehicle: Klucel (hydroxypropylcellulose) (HPC)
  T/C: 91 % of control
endpoint: mean survival time, dose: 400.0 mg/kg/injection, schedule: Q04DX003 (ip), vehicle: Klucel (hydroxypropylcellulose) (HPC)
  T/C: 86 % of control

## C[CH2][Sn](/[CH]=C/C(C)(C)O)([CH2]C)[CH2]C
endpoint: mean survival time, dose: 50.0 mg/kg/injection, schedule: Q01DX009 (ip), vehicle: saline
  T/C: 102 % of control
[15]
  T/C: 102 % of control

## COc1ccc(C(=O)c2ccccc2)cc1
[6]
  T/C: 115 % of control
[12]
  T/C: 86 % of control
[13]
  T/C: 86 % of control

## C/C(=N/N(C)C)c1ccc(C)cc1
endpoint: mean survival time, dose: 100.0 mg/kg/injection, schedule: Q01DX001 (ip), vehicle: saline
  T/C: 93 % of control
[15]
  T/C: 91 % of control
endpoint: mean survival time, dose: 200.0 mg/kg/injection, schedule: Q01DX001 (ip), vehicle: saline
  T/C: 97 % of control
endpoint: mean survival time, dose: 400.0 mg/kg/injection, schedule: Q01DX001 (ip), vehicle: saline
  T/C: 105 % of control

## O=C1c2ccccc2C(=O)N1OCc1cc(Cl)sc1Cl
[8]
  T/C: 97 % of control
[10]
  T/C: 96 % of control
[11]
  T/C: 104 % of control
